Experimental findings from patent publication US10487068B2, “Pyridazine derivatives as RORc modulators” (Genentech, Inc., priority 2015, dated 2019) are described below.

For the test, the target named is T1, RORc ligand binding domain (Homo sapiens, UniProt P51449).
T1 sequence (P51449 269-508 limits assumed): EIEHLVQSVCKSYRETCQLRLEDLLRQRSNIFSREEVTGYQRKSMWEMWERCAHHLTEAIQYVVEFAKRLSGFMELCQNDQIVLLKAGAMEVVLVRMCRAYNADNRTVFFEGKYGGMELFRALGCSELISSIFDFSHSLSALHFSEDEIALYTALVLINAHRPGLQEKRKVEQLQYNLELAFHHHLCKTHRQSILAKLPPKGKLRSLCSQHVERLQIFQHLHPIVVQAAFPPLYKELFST
The test is described as follows: In Vitro RORc Ligand Binding Assay. The following applies: RORc IC50, radioligand 25-[3H]hydroxycholesterol 6 nM; 0.6 ug/mL RORc receptor; 3 h at 25° C.

For the compound `CC(C)(O)CNC(=O)c1cccc([C@@]23CC[C@@H](c4cc(-c5c(F)cccc5F)nnc42)C3(C)C)n1` [Example 63, 6-((5R,8S)-3-(2,6-difluorophenyl)-9,9-dimethyl-5,6,7,8-tetrahydro-5,8-methanocinnolin-8-yl)-N-(2-hydroxy-2-methylpropyl)picolinamide], the 50% inhibitory concentration (IC50) (commonly the point on the concentration scale where inhibition reaches its midpoint) was found to be 0.0531 µM.
`CC1(C)[C@H]2CC[C@]1(c1cc(C(=O)NCCO)ccn1)c1nnc(-c3c(F)cccc3F)cc12` [Example 64] yielded a half-maximal inhibitory concentration (IC50) of 0.0954 µM. This IC50 is about 1.8-fold higher than that of the compound before.
Regarding `CC1(C)[C@H]2CC[C@]1(c1cc(C(=O)NC3COC3)ccn1)c1nnc(-c3c(F)cccc3F)cc12` [Example 65], the IC50 worked out at 0.104 µM.
With `Cc1nnc(-c2ccnc([C@@]34CC[C@@H](c5cc(-c6c(F)cccc6F)nnc53)C4(C)C)c2)o1` [Example 66] the figure was 0.161 µM; with `C[C@H](CO)NC(=O)c1ccnc([C@@]23CC[C@@H](c4cc(-c5c(F)cccc5F)nnc42)C3(C)C)c1` [Example 67], 0.276 µM; with `C[C@@H](CO)NC(=O)c1ccnc([C@@]23CC[C@@H](c4cc(-c5c(F)cccc5F)nnc42)C3(C)C)c1` [Example 68], 0.553 µM.
The same measure for `CC1(C)[C@H]2CC[C@]1(c1cc(C(N)=O)ccn1)c1nnc(-c3c(F)cccc3F)cc12` [Example 69]: 0.0264 µM; for `CNC(=O)c1ccnc([C@@]23CC[C@@H](c4cc(-c5c(F)cccc5F)nnc42)C3(C)C)c1` [Example 70]: 0.05 µM; for `CC1(C)[C@H]2CC[C@]1(c1cc(N)ccn1)c1nnc(-c3c(F)cccc3F)cc12` [Example 71]: 1.51 µM.
With `CC1(C)[C@H]2CC[C@]1(c1cccc(N)n1)c1nnc(-c3c(F)cccc3F)cc12` [Example 72, 6-((5R,8S)-3-(2,6-difluorophenyl)-9,9-dimethyl-5,6,7,8-tetrahydro-5,8-methanocinnolin-8-yl)pyridin-2-amine] the figure was 0.0026 µM; with `CC1(C)[C@@H]2CC[C@@]1(c1cncc(C(=O)NCCO)n1)c1nnc(-c3c(F)cccc3F)cc12` [Example 73, 6-((5S,8R)-3-(2,6-difluorophenyl)-9,9-dimethyl-5,6,7,8-tetrahydro-5,8-methanocinnolin-8-yl)-N-(2-hydroxyethyl)pyrazine-2-carboxamide], 0.0324 µM; with `CC(=O)Nc1ccnc([C@@]23CC[C@@H](c4cc(-c5c(F)cccc5F)nnc42)C3(C)C)c1` [Example 74], 0.118 µM.
`CC1(C)[C@H]2CC[C@]1(c1cc(-c3nnc(CO)o3)ccn1)c1nnc(-c3c(F)cccc3F)cc12` [Example 75] gave an IC50 of 0.167 µM.
For the compound `CN(C)C(=O)c1ccnc([C@@]23CC[C@@H](c4cc(-c5c(F)cccc5F)nnc42)C3(C)C)c1` [Example 76], the half-inhibitory concentration (IC50) came to 1.47 µM.
The same measure for `CC(C)(O)CNC(=O)c1ccnc([C@@]23CC[C@@H](c4cc(-c5c(F)cccc5F)nnc42)C3(C)C)c1` [Example 77]: 0.139 µM; for `CC1(C)[C@H]2CC[C@]1(c1cc(NS(C)(=O)=O)ccn1)c1nnc(-c3c(F)cccc3F)cc12` [Example 78]: 1.19 µM.
The same measure for `CC1(C)[C@H]2CC[C@]1(c1cc(CO)ccn1)c1nnc(-c3c(F)cccc3F)cc12` [Example 79]: 0.0473 µM; for `CC1(C)[C@H]2CC[C@]1(c1cccc(NS(C)(=O)=O)n1)c1nnc(-c3c(F)cccc3F)cc12` [Example 80, N-(6-((5R,8S)-3-(2,6-difluorophenyl)-9,9-dimethyl-5,6,7,8-tetrahydro-5,8-methanocinnolin-8-yl)pyridin-2-yl)methanesulfonamide]: 0.0112 µM.
On to `CC1(C)[C@H]2CC[C@]1(c1ccnc(C(=O)NCCO)n1)c1nnc(-c3c(F)cccc3F)cc12` [Example 81], for which the IC50 was found to be 0.0528 µM.
For the compound `CC1(C)[C@@H]2CC[C@@]1(c1cncc(C(=O)NC3COC3)n1)c1nnc(-c3c(F)cccc3F)cc12` [Example 82, 6-((5S,8R)-3-(2,6-difluorophenyl)-9,9-dimethyl-5,6,7,8-tetrahydro-5,8-methanocinnolin-8-yl)-N-(oxetan-3-yl)pyrazine-2-carboxamide], the IC50 is 0.129 µM. This IC50 lies about 2.4-fold higher than the previous one.
With `CC1(C)[C@H]2CC[C@]1(c1cccc(C(=O)NCCS(C)(=O)=O)n1)c1nnc(-c3c(F)cccc3F)cc12` [Example 83, 6-((5R,8S)-3-(2,6-difluorophenyl)-9,9-dimethyl-5,6,7,8-tetrahydro-5,8-methanocinnolin-8-yl)-N-(2-(methylsulfonyl)ethyl)picolinamide] the figure was 0.0133 µM; with `CC1(C)[C@H]2CC[C@]1(c1cncc(-c3nnc(CO)o3)n1)c1nnc(-c3c(F)cccc3F)cc12` [Example 84, (5-(6-((5R,8S)-3-(2,6-difluorophenyl)-9,9-dimethyl-5,6,7,8-tetrahydro-5,8-methanocinnolin-8-yl)pyrazin-2-yl)-1,3,4-oxadiazol-2-yl)methanol], 0.0263 µM; with `CC1(C)[C@H]2CC[C@]1(c1cncc(C(=O)NCCCO)n1)c1nnc(-c3c(F)cccc3F)cc12` [Example 85, 6-((5R,8S)-3-(2,6-difluorophenyl)-9,9-dimethyl-5,6,7,8-tetrahydro-5,8-methanocinnolin-8-yl)-N-(3-hydroxypropyl)pyrazine-2-carboxamide], 0.0306 µM.
With `CC(C)(O)CNC(=O)c1cncc([C@@]23CC[C@@H](c4cc(-c5c(F)cccc5F)nnc42)C3(C)C)n1` [Example 86, 6-((5R,8S)-3-(2,6-difluorophenyl)-9,9-dimethyl-5,6,7,8-tetrahydro-5,8-methanocinnolin-8-yl)-N-(2-hydroxy-2-methylpropyl)pyrazine-2-carboxamide] the figure was 0.045 µM; with `CC1(C)[C@H]2CC[C@]1(c1cncc(CO)n1)c1nnc(-c3c(F)cccc3F)cc12` [Example 87, (6-((5R,8S)-3-(2,6-difluorophenyl)-9,9-dimethyl-5,6,7,8-tetrahydro-5,8-methanocinnolin-8-yl)pyrazin-2-yl)methanol], 0.0158 µM.
Turning to `Cc1cnc(-c2cncc([C@@]34CC[C@@H](c5cc(-c6c(F)cccc6F)nnc53)C4(C)C)n2)o1` [Example 88, 2-(6-((5R,8S)-3-(2,6-difluorophenyl)-9,9-dimethyl-5,6,7,8-tetrahydro-5,8-methanocinnolin-8-yl)pyrazin-2-yl)-5-methyloxazole], the 50% inhibitory concentration (IC50) came out at 0.0054 µM.
With `C[C@H](O)CNC(=O)c1cncc([C@]23CC[C@H](c4cc(-c5c(F)cccc5F)nnc42)C3(C)C)n1` [Example 89, 6-((5S,8R)-3-(2,6-difluorophenyl)-9,9-dimethyl-5,6,7,8-tetrahydro-5,8-methanocinnolin-8-yl)-N-((S)-2-hydroxypropyl)pyrazine-2-carboxamide] the figure was 0.0128 µM; with `CC1(C)[C@H]2CC[C@]1(c1cncc(C(=O)NCCC#N)n1)c1nnc(-c3c(F)cccc3F)cc12` [Example 90, N-(2-cyanoethyl)-6-((5R,8S)-3-(2,6-difluorophenyl)-9,9-dimethyl-5,6,7,8-tetrahydro-5,8-methanocinnolin-8-yl)pyrazine-2-carboxamide], 0.023 µM; with `CN(CCO)C(=O)c1cncc([C@@]23CC[C@@H](c4cc(-c5c(F)cccc5F)nnc42)C3(C)C)n1` [Example 91, 6-((5R,8S)-3-(2,6-difluorophenyl)-9,9-dimethyl-5,6,7,8-tetrahydro-5,8-methanocinnolin-8-yl)-N-(2-hydroxyethyl)-N-methylpyrazine-2-carboxamide], 0.0408 µM.
The same measure for `CC1(C)[C@H]2CC[C@]1(c1cncc(C(=O)NCC#N)n1)c1nnc(-c3c(F)cccc3F)cc12` [Example 92, N-(cyanomethyl)-6-((5R,8S)-3-(2,6-difluorophenyl)-9,9-dimethyl-5,6,7,8-tetrahydro-5,8-methanocinnolin-8-yl)pyrazine-2-carboxamide]: 0.0206 µM; for `CC1(C)[C@H]2CC[C@]1(c1cncc(C(=O)N[C@H]3C[C@@H](O)C3)n1)c1nnc(-c3c(F)cccc3F)cc12` [Example 93, 6-((5R,8S)-3-(2,6-difluorophenyl)-9,9-dimethyl-5,6,7,8-tetrahydro-5,8-methanocinnolin-8-yl)-N-((1s,3R)-3-hydroxycyclobutyl)pyrazine-2-carboxamide]: 0.0318 µM.
On to `CC1(C)[C@H]2CC[C@]1(c1cncc(C(=O)N[C@H]3C[C@H](O)C3)n1)c1nnc(-c3c(F)cccc3F)cc12` [Example 94, 6-((5R,8S)-3-(2,6-difluorophenyl)-9,9-dimethyl-5,6,7,8-tetrahydro-5,8-methanocinnolin-8-yl)-N-((1r,3S)-3-hydroxycyclobutyl)pyrazine-2-carboxamide], for which the IC50 came out at 0.0215 µM.
The compound `CC1(C)[C@H]2CC[C@]1(c1nccc(C(=O)NCCO)n1)c1nnc(-c3c(F)cccc3F)cc12` [Example 95, 2-((5R,8R)-3-(2,6-difluorophenyl)-9,9-dimethyl-5,6,7,8-tetrahydro-5,8-methanocinnolin-8-yl)-N-(2-hydroxyethyl)pyrimidine-4-carboxamide] gave a half-inhibitory concentration (IC50) of 0.117 µM.
`CC1(C)[C@H]2CC[C@]1(c1cccc(C(=O)Nc3c[nH]c(=O)cn3)n1)c1nnc(-c3c(F)cccc3F)cc12` [Example 96, 6-((5R,8S)-3-(2,6-difluorophenyl)-9,9-dimethyl-5,6,7,8-tetrahydro-5,8-methanocinnolin-8-yl)-N-(5-oxo-4,5-dihydropyrazin-2-yl)picolinamide] gave a half-maximal inhibitory concentration (IC50) of 0.0343 µM.
Regarding `CC1(C)[C@H]2CC[C@]1(c1nccc(NCCO)n1)c1nnc(-c3c(F)cccc3F)cc12` [Example 97, 2-((2-((5R,8R)-3-(2,6-difluorophenyl)-9,9-dimethyl-5,6,7,8-tetrahydro-5,8-methanocinnolin-8-yl)pyrimidin-4-yl)amino)ethanol], the half-maximal inhibitory concentration (IC50) is 0.0983 µM.
With `CC1(C)[C@H]2CC[C@]1(c1ccnc(NCCO)n1)c1nnc(-c3c(F)cccc3F)cc12` [Example 98] the figure was 0.0154 µM.
